Assay results as given in paper PMC6459958, “NEP-TC a rRNA Methyltransferase Involved on Somatic Embryogenesis of Tamarillo (Solanum betaceum Cav.)” (Frontiers in Plant Science, 2019).

Target: NEP-TC (Solanum betaceum, UniProt I1W0V3)
Assay: coupled colorimetric SAM methyltransferase assay (SAH production, […] nm)
Format: biochemical
Details: methyl donor; co-substrate rRNA or total RNA from non-embryogenic calli

Chain of NEP-TC (I1W0V3 1-221): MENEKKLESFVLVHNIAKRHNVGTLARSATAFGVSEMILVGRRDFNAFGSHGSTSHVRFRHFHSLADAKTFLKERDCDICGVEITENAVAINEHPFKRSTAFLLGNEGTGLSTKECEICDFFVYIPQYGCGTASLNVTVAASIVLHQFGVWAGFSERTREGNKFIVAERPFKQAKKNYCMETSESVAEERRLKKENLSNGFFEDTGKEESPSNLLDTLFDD

## C[S+](CC[C@H](N)C(=O)O)C[C@H]1O[C@@H](n2cnc3c(N)ncnc32)[C@H](O)[C@@H]1O (stereo partly shown) [SAM]
  coupled colorimetric SAM methyltransferase assay (SAH production, 510 nm): production of SAH in SAM-dependent methylation reactions
